Assay results as given in BindingDB's records for patent US20250382289 (Xizang Haisco Pharmaceutical, 2025).

Molecular target: Ubiquitin carboxyl-terminal hydrolase 1/WD repeat-containing protein 48 (Homo sapiens, UniProt O94782)
Test: Inhibitory Activity on USP1/UAF1 Enzymology
Description: Ubiquitin rhodamine 110 was used as a substrate to detect the activity of the deubiquitinating enzyme USP1/UAF1 after drug treatment. The total test system was 20 μl, and the test buffer comprises 50 mM Tris-HCl (pH 7.8), 0.5 mM EDTA, 0.01% Bovine Serum Albumin, 1 mM DTT, and 0.01% Tween-20.

Ubiquitin carboxyl-terminal hydrolase 1/WD repeat-containing protein 48, sequence (O94782 whole entry): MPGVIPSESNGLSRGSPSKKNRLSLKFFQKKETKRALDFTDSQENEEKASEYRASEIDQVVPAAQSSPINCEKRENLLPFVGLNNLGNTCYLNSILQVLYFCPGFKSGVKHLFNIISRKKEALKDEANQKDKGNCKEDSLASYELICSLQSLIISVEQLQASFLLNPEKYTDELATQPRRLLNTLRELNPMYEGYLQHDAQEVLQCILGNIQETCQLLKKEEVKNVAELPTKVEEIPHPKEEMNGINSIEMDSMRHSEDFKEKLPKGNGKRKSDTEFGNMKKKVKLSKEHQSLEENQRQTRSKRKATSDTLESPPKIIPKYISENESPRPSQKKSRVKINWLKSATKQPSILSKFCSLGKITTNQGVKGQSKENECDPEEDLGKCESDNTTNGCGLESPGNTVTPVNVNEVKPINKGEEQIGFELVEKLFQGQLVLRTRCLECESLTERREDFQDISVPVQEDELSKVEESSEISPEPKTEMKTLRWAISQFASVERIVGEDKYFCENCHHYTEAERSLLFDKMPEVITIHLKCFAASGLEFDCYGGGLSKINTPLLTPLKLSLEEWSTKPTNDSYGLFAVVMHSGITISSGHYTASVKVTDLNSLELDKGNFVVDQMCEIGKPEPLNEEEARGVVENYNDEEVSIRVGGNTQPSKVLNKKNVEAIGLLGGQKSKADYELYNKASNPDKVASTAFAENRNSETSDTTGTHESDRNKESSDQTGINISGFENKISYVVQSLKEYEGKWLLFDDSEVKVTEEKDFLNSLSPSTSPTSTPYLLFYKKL
Ubiquitin carboxyl-terminal hydrolase 1/WD repeat-containing protein 48, sequence (Q8TAF3 whole entry, further chain): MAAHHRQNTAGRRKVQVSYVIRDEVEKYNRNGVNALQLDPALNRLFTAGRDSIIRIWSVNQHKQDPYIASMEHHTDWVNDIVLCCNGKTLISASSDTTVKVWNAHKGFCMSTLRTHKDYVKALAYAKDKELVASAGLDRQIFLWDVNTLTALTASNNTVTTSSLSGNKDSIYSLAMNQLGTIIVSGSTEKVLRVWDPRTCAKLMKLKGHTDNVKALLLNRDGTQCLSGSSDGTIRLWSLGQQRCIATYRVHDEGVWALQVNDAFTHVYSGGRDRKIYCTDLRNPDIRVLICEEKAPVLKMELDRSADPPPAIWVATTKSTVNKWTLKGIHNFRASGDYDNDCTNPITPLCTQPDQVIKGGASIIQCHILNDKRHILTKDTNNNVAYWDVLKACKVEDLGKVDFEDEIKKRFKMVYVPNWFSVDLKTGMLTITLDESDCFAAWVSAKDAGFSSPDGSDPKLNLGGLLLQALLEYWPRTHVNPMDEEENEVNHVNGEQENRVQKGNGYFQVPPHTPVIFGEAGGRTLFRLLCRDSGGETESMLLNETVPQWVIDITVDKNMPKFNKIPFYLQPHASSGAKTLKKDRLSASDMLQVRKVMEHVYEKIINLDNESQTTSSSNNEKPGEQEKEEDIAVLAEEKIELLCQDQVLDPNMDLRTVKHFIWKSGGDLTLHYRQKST

Row | Compound | IC50
1 | Fc1c(-c2c(OC(F)F)ncnc2C2CC2)ncc2cnn(Cc3ccc(-c4nc(C(F)(F)F)c5n4CC(F)(F)C5)cc3)c12 [US20250382289, Compound 14] | < 0.02 µM
2 | Fc1c(-c2c(OC(F)F)ncnc2C2CC2)ncc2cnn(Cc3ccc(-c4nc(C(F)(F)F)c5n4CC4(CC4)C5)cc3)c12 [US20250382289, Compound 12] | < 0.02 µM
3 | CC#CCn1cc(C(F)(F)F)nc1-c1ccc(Cn2ncc3cnc(-c4c(OC(F)F)ncnc4C4CC4)c(F)c32)cc1 [US20250382289, Compound 19] | < 0.02 µM
4 | Fc1c(-c2c(OC(F)F)ncnc2C2CC2)ncc2cnn(CC34CCC(c5nc(C(F)(F)F)cn5CC5CC5)(CC3)CC4)c12 [US20250382289, Compound 10] | < 0.02 µM
5 | C#CCn1cc(C(F)(F)F)nc1-c1ccc(Cn2ncc3cnc(-c4c(OC(F)F)ncnc4C4CC4)c(F)c32)cc1 [US20250382289, Compound 18] | < 0.02 µM

The remaining lines, values ahead:

Row | IC50 | Compound
6 | < 0.02 µM | CC(C)n1cc(C(F)(F)F)nc1-c1ccc(Cn2ncc3cnc(-c4c(OC(F)F)ncnc4C4CC4)c(F)c32)cc1 [US20250382289, Compound 20]
7 | < 0.02 µM | COc1ncnc(C2CC2)c1-c1ncc2cnn(Cc3ccc(-c4nc(C(F)(F)F)c5n4CC4(CC4)C5)cc3)c2c1F [US20250382289, Compound 21]
